Data from patent US9789111B2, “Casein kinase 1δ (CK 1δ) inhibitors” (Electrophoretics Limited, priority 2010, dated 2017).

Columns and labels:
SH-SY5Y-TMHT cells = assay: Cell viability, MTT assay; type: cell-based, human; conditions: 0.5 μM (tested 0.1 μM to 1 μM), 6 h of treatment
Procedure: (§1) SH-SY5Y-TMHT cells are kept in culture medium (DMEM medium, 10% FCS, 1% NEAA, 1% L-Glutamine, 100 μg/ml Gentamycin, 300 μg/ml Geneticin G-418) for 2 days until 80-90% confluency. Cells are then differentiated in culture medium supplemented with 10 μM retinoic acid (RA) for 7 days changing medium every 2 to 3 days. Differentiated cells are seeded onto 6-well plates and 96-well plates at a cell density of 1.25×10^6 and 8×10^5 cells per well, respectively. On day 8 post-differentiation, the test compounds, reference compounds and vehicle control were added to the culture medium. After 6 h of compound exposure one plate of cells is subjected to a MTT assay to evaluate the effect of test and reference items on cell viability. Remaining wells are washed once with cold PBS and harvested in 300 μl RIPA-Buffer [50 mM Tris pH 7.4, 1% Nonident P40, 0.25% Na-deoxy-cholate, 150 mM NaCl, 1 mM EDTA, 1 μM NaF, 1 μM Na-ortho-vanadate, 80 mM Glycerophosphate, supplemented with freshly added protease (Calbiochem) and phosphatase (Sigma) inhibitor cocktail]. The cell suspension is transferred into a 1.5 ml tube and additionally lysed by sonication on ice. An aliquot of 20 μl is taken for the determination of the protein concentration (BCA assay). Subsequently, the lysates are snap frozen and stored at −80° C. until shipment.
To determine compound activity, it is necessary to control for potential cell toxicity of all molecules. Viability of cultures is determined by the MTT assay. This assay allows the measurement of the mitochondrial dehydrogenase activity which reduces yellow MTT to dark blue formazan crystals. Since this reaction is catalyzed in living cells only this assay is used for the determination of cell viability. MTT solution is added to each well in a final concentration of 0.5 mg/ml. After 2 hours, the MTT containing medium is aspired. Cells are lysed in 3% SDS and the formazan crystals are dissolved in isopropanol/HCl. Optical density is measured with a plate-reader at wavelength 570 nm. Cell survival rate is expressed as optical density (OD). Values are calculated as percent of control values.
Cell viability was determined in differentiated SH-SY5Y-TMHT cells by the MTT assay. Test and reference compounds were applied in a concentration range from 0.05 μM to 10 μM and from 0.1 μM to 1 μM, respectively. Upon 6 h of treatment, cell viability was evaluated. […] Statistical significance is indicated by *<0.05, **<0.01, ***<0.001 as determined by One-Way ANOVA. Data are shown from two independent experiments as group mean+/−SEM (n=8). […] Statistical significance is indicated by *<0.05, **<0.01, ***<0.001 as determined by One-Way ANOVA. […] Statistical significance is indicated by *<0.05, **<0.01, ***<0.001 as determined by One-Way ANOVA. […]

[1] = system: Tau phosphorylated at Threonine 231 in SH-SY5Y-TMHT cells; assay: Western Blot of Tau phosphorylated at Threonine 231; type: cell-based, human; conditions: 5 μM, Western Blot
Procedure: as §1
(§2) Lysates of treated cells were prepared in Laemmli buffer and 10 μg loaded into each lane of a 10% Nu-PAGE gel (Invitrogen, UK). Samples were run until the coomassie blue dye fromt was within 1 cm of the bottom of the gel. The separated proteins were transferred onto nitrocellulose and blots developed using antibodies specific for total tau (Polyclonal Rabbit Anti-Human Tau, Dako, UK (cat # A0024)) and phopho-Threonine 231 (Tau (Phospho-Thr231) Antibody, Signalway Antibody, USA (cat # 11110)) respectively. In each case the bound antibody was detected using ECL Rabbit IgG, HRP-Linked (from donkey) (GE Healthcare, UK (cat # NA934))

[2] = system: total Tau in SH-SY5Y-TMHT cells; assay: Western Blot of total Tau; type: cell-based, human; conditions: 5 μM
Procedure: as §1, §2

[3] = system: Tau phosphorylation at key pathogenic sites in SH-SY5Y-TMHT cells; conditions: SH-SY5Y-TMHT cells exposed to kinase inhibitors; cited from earlier work
CK1δ = target: T1, CK1δ (Homo sapiens, UniProt P48730); assay: CK1δ inhibition assay (33P-ATP, CK1tide substrate); type: biochemical; conditions: range of kinase inhibition assays
T1 construct: Recombinant human full-length construct; GST; host or cells: insect cells
T1 sequence (P48730 1-409 isoform P48730-2): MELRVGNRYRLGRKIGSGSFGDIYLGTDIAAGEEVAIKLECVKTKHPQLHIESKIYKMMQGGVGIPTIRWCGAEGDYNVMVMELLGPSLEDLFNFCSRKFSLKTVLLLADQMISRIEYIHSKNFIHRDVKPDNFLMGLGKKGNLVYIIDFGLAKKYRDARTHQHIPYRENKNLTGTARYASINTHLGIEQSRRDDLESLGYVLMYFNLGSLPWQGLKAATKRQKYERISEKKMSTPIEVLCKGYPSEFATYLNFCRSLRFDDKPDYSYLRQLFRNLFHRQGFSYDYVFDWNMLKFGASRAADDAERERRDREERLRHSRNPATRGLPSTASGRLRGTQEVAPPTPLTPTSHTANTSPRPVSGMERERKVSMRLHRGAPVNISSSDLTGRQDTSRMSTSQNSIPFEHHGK
Procedure: The compounds of the invention may be tested for inhibition of casein kinase 1 delta (CK1δ) in accordance with the assay protocols described in US 2010/0152157, EP 1,636,375 or Hanger et al (2007) J. Biol. Chem. 282, 23645-23654. In particular, the assay was conducted in accordance with the following protocol:
(§3) Base Reaction buffer; 20 mM Hepes (pH 7.5), 10 mM MgCl2, 1 mM EGTA, 0.02% Brij35, 0.02 mg/ml BSA, 0.1 mM Na3VO4, 2 mM DTT, 1% DMSO
(§4) It should be noted that required cofactors are added individually to each kinase reaction.
(§5) • 1. Prepare indicated substrate in freshly prepared Base Reaction Buffer as described above • 2. Deliver any required cofactors to the substrate solution • 3. Deliver indicated kinase into the substrate solution and gently mix • 4. Deliver compounds in DMSO into the kinase reaction mixture • 5. Deliver ^33P-ATP (specific activity 0.01 μCi/μl final) into the reaction mixture to initiate the reaction • 6. Incubate kinase reaction for 120 min. at room temperature • 7. Reactions are spotted onto P81 ion exchange paper (Whatman #3698-915) • 8. Wash filters extensively in 0.75% Phosphoric acid Kinase Information: • CK1δ—Genbank Accession # NP_620693 • Recombinant human full-length construct. GST-tagged, expressed in insect cells. • Final concentration in assay=4 nM • Substrate: CK1tide • Substrate sequence: [KRRRAL[pS]VASLPGL] • Final substrate concentration in assay=20 μM • It should be noted that no additional cofactors are added to the reaction mixture.

ABL2/ARG = ABL2/ARG (Homo sapiens, UniProt P42684); assay: kinase inhibition assay panel; type: biochemical
Procedure: as §3, §4, §5

CDK5/p25 = CDK5/p25 (Homo sapiens, UniProt Q00535); assay: kinase inhibition assay panel; type: biochemical
Procedure: as §3, §4, §5

GSK3b = GSK3b (Homo sapiens, UniProt P49841); assay: kinase inhibition assay panel; type: biochemical
Procedure: as §3, §4, §5

HGK/MAP4K4 = HGK/MAP4K4 (Homo sapiens, UniProt O95819); assay: kinase inhibition assay panel; type: biochemical
Procedure: as §3, §4, §5

KDR/VEGFR2 = KDR/VEGFR2 (Homo sapiens, UniProt P35968); assay: kinase inhibition assay panel; type: biochemical
Procedure: as §3, §4, §5

LCK = LCK (Homo sapiens, UniProt P06239); assay: kinase inhibition assay panel; type: biochemical
Procedure: as §3, §4, §5

MSK1/RPS6KA5 = MSK1/RPS6KA5 (Homo sapiens, UniProt O75582); assay: kinase inhibition assay panel; type: biochemical
Procedure: as §3, §4, §5

PDK1/PDPK1 = target: T2, PDK1/PDPK1 (Homo sapiens, UniProt O15530); assay: kinase inhibition assay panel; type: biochemical
T2 sequence (O15530 1-556): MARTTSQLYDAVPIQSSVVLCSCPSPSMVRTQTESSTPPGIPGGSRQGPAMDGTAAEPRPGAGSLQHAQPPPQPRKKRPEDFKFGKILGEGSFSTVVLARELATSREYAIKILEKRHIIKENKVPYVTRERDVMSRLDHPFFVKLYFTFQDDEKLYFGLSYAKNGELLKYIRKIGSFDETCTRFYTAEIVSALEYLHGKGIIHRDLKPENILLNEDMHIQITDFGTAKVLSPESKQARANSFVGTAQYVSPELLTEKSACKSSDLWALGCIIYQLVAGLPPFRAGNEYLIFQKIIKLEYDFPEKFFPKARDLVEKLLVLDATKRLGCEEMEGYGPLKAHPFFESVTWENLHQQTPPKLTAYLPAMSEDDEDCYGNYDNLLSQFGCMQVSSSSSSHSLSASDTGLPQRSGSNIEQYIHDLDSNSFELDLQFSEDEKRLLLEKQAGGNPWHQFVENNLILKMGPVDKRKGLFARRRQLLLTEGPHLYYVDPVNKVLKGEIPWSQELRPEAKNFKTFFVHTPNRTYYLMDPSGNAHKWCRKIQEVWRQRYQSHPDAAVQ
Procedure: as §3, §4, §5

PIM3 = PIM3 (Homo sapiens, UniProt Q86V86); assay: kinase inhibition assay panel; type: biochemical
Procedure: as §3, §4, §5

PKCa = PKCa (Homo sapiens, UniProt P17252); assay: kinase inhibition assay panel; type: biochemical
Procedure: as §3, §4, §5

PKCb2 = PKCb2 (Homo sapiens, UniProt P05771); assay: kinase inhibition assay panel; type: biochemical
Procedure: as §3, §4, §5

ROCK1 = ROCK1 (Homo sapiens, UniProt Q13464); assay: kinase inhibition assay panel; type: biochemical
Procedure: as §3, §4, §5

c-SRC = c-SRC (Homo sapiens, UniProt P12931); assay: kinase inhibition assay panel; type: biochemical
Procedure: as §3, §4, §5

CK1g1 = CK1g1 (Homo sapiens, UniProt Q9HCP0); assay: kinase inhibition assay panel; type: biochemical
CK1g2 = CK1g2 (Homo sapiens, UniProt P78368); assay: kinase inhibition assay panel; type: biochemical
CLK2 = CLK2 (Homo sapiens, UniProt P49760); assay: kinase inhibition assay panel; type: biochemical
FGFR1 = FGFR1 (Homo sapiens, UniProt P11362); assay: kinase inhibition assay panel; type: biochemical

Sequence of PKCb2 (P05771 1-673 isoform P05771-2): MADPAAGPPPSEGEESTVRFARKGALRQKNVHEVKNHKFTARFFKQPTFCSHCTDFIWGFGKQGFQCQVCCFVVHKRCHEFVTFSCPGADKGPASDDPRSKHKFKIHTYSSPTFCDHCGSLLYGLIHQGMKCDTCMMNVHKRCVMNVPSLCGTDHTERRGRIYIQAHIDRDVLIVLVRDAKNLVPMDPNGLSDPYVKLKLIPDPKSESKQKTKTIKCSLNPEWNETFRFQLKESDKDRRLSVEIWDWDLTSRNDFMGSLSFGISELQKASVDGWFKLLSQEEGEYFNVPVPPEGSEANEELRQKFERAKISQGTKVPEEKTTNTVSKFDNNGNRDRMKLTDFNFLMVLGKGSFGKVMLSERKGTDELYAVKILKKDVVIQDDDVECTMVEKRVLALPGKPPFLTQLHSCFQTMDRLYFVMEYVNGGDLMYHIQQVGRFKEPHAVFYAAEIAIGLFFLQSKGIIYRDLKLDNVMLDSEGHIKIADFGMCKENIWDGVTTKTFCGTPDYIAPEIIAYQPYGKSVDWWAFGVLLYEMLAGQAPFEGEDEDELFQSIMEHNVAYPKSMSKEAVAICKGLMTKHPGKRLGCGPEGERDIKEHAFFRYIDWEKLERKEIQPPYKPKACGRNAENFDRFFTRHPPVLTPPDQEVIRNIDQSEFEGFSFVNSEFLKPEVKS
Sequence of CK1g1 (Q9HCP0 whole entry): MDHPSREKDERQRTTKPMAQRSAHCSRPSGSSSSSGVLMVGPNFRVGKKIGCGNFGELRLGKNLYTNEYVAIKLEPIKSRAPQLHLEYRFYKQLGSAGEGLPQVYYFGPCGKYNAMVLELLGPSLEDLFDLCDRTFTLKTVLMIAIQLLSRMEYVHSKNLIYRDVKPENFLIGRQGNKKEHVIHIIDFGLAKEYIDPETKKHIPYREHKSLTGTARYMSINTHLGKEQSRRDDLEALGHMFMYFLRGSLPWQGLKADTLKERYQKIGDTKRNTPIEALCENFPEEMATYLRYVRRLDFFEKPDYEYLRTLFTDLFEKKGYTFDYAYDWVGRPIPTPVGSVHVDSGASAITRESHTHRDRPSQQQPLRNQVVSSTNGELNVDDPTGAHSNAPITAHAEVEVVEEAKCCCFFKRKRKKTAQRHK
Sequence of ABL2/ARG (P42684 whole entry): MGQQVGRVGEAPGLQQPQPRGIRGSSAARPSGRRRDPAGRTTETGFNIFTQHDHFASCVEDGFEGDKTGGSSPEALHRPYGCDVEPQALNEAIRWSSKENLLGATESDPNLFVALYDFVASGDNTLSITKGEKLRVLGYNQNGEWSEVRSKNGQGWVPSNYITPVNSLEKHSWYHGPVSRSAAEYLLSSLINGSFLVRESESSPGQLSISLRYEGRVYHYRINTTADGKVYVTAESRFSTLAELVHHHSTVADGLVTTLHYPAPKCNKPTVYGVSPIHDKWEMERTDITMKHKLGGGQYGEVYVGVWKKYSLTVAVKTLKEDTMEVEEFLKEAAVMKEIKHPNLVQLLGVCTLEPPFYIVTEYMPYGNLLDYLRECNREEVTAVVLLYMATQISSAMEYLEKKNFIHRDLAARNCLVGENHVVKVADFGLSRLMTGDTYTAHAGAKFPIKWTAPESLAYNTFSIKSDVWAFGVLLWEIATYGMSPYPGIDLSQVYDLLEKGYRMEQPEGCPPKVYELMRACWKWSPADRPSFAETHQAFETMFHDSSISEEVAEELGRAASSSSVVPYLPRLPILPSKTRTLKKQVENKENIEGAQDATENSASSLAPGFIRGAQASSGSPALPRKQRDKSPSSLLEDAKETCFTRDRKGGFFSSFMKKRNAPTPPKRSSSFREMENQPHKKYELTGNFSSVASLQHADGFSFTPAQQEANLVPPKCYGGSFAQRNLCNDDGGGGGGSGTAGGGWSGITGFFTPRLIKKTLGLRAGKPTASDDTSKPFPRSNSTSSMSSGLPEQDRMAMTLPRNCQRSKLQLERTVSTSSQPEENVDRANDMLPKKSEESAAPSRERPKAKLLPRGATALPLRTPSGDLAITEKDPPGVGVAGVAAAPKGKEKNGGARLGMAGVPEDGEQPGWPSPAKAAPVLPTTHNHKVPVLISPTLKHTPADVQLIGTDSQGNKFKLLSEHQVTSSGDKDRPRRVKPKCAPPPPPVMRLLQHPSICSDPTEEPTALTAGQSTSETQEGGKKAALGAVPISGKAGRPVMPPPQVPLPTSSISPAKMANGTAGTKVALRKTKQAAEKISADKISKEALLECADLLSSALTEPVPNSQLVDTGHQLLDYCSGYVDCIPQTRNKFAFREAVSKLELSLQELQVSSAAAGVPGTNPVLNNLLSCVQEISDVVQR
Sequence of LCK (P06239 whole entry, species assumed): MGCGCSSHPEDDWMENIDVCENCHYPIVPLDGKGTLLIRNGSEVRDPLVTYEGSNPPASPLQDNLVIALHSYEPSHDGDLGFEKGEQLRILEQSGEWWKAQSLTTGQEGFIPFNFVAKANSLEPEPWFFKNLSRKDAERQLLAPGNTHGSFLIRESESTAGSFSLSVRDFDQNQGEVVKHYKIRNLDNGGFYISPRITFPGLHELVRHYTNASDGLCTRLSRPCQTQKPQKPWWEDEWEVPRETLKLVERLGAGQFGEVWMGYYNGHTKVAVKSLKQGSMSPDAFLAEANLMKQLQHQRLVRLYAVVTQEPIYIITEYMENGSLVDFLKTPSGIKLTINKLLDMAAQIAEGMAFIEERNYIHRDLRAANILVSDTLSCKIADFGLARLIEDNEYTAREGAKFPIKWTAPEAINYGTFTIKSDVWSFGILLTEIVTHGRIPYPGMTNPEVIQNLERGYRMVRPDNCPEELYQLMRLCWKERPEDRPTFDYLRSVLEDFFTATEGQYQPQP
Sequence of KDR/VEGFR2 (P35968 20-1356): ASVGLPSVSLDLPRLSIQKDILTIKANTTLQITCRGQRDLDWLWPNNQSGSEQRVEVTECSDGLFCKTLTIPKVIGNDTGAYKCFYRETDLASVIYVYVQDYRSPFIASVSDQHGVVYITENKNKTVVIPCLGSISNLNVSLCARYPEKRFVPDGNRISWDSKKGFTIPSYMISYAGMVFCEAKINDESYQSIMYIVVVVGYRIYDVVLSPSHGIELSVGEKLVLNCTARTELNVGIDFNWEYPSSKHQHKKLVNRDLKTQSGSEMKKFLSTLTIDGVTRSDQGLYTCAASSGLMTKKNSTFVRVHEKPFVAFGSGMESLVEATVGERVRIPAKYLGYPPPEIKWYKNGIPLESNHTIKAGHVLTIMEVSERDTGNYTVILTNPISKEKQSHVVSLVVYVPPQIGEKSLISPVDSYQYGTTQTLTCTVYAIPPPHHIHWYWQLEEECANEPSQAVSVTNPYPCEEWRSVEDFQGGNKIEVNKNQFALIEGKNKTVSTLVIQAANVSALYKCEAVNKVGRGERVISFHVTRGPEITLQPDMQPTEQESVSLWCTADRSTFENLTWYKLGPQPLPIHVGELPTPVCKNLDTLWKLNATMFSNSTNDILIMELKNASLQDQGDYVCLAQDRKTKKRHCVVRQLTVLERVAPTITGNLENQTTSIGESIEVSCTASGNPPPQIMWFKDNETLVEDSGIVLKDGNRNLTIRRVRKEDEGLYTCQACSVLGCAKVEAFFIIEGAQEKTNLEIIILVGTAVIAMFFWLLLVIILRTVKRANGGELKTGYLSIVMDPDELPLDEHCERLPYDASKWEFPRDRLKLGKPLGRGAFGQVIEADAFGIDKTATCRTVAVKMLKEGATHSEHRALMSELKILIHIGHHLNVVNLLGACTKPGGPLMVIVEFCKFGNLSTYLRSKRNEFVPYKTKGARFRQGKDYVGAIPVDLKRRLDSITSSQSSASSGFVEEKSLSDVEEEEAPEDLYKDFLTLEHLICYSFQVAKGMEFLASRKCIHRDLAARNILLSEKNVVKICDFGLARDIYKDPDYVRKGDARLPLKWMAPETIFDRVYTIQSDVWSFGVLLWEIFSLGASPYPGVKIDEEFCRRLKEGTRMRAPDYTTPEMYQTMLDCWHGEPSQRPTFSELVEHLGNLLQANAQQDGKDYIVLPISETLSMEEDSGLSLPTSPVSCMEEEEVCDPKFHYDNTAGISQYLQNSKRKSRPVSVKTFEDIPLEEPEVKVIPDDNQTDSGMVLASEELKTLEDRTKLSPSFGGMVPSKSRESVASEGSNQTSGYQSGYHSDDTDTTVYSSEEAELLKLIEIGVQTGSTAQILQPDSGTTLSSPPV
Sequence of CLK2 (P49760 whole entry, species assumed): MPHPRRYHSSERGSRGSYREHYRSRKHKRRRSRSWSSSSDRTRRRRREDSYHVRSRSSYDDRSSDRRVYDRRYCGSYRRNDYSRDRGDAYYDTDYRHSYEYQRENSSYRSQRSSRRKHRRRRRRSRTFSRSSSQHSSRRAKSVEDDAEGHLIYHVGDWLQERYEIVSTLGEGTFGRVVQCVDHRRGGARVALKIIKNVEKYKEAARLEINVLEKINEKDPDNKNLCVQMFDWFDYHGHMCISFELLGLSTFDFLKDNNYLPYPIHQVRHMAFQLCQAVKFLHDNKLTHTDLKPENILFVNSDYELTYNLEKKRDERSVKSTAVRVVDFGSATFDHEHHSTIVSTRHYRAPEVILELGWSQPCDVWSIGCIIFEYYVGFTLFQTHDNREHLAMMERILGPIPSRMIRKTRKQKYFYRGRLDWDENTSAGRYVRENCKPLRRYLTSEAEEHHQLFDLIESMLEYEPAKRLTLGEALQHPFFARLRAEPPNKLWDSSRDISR

Nc1nccc(-c2c(-c3ccc(F)cc3)ncn2C2CCCCC2)n1 [PF670462, reference compound]
effect on the cell viability of SH-SY5Y-TMHT cells (SH-SY5Y-TMHT cells): significant protective effect
detectable level of pT231 in Tau protein [1]: reduced the detectable level of pT231
detectable levels of total Tau [2]: marginally less total Tau

COc1cc(OC)c(C=C2C(O)=Nc3ccccc32)c(OC)c1 [IC261]
levels of Tau phosphorylation at key pathogenic sites [3]: reduced

NC(=O)c1c(N)n(C(=O)c2ccc(F)cc2)c2ccccc12 [Compound 999, 2-amino-1-[(4-fluorophenyl)carbonyl]-1H-indole-3-carboxamide]
selectivity for CK1δ when compared with other kinases (CK1δ): significant and selective inhibition for CK1δ
inhibition of ABL2/ARG (ABL2/ARG): lower than 40%
inhibition of CDK5/p25 (CDK5/p25): lower than 40%
inhibition of GSK3b (GSK3b): lower than 40%
inhibition of HGK/MAP4K4 (HGK/MAP4K4): lower than 40%
inhibition of KDR/VEGFR2 (KDR/VEGFR2): lower than 40%
inhibition of LCK (LCK): lower than 40%
inhibition of MSK1/RPS6KA5 (MSK1/RPS6KA5): lower than 40%
inhibition of PDK1/PDPK1 (PDK1/PDPK1): lower than 40%
inhibition of PIM3 (PIM3): lower than 40%
inhibition of PKCa (PKCa): lower than 40%
inhibition of PKCb2 (PKCb2): lower than 40%
inhibition of ROCK1 (ROCK1): lower than 40%
inhibition of c-SRC (c-SRC): lower than 40%
inhibition of CK1g1 (CK1g1): lower than 40%
inhibition of CK1g2 (CK1g2): lower than 40%
inhibition of CLK2 (CLK2): lower than 40%
inhibition of FGFR1 (FGFR1): lower than 40%
